Molecules are shown by their SMILES. A value given as a limit tells only on which side of the number the result lay.

Type in all cases: cell-based
For assay [1], the target named is T1, β2AR (Homo sapiens, UniProt P07550). The assay can be described thus: […] high throughput assay for β-arrestin recruitment to β2AR. The conditions noted are these: PathHunter, ISO-promoted β-arrestin2 recruitment.
Experimental: (§1) HEK 293 cells stably overexpressing β2AR included 250 μg/ml G418. Cells were incubated at 37° C. in a humidified incubator with 5% CO2. High throughput assay for cAMP production. […] 0.25 μL of orthogonally compressed libraries from the Lankenau Chemical Genomics Center (LCGC) were transferred into plates using a high-density replication tool and allowed to incubate with cells for one hour at 37° C. Cells were read every three minutes for 18 minutes on a PolarStar Optima plate reader (BMG) to establish peak signal. ISO was added to each well to a final concentration of 1 μM, and luminescence was determined in kinetic mode at room temperature (23-25° C.). Response was analyzed relative to forskolin (7 μM) and alprenolol (1 μM) as positive and negative controls, respectively. High throughput assay for β-arrestin recruitment to β2AR. […] 0.25 μL of orthogonally compressed libraries from the Lankenau Chemical Genomics Center (LCGC) were transferred into plates using a high-density replication tool and allowed to incubate with cells for 45 minutes at 37° C. ISO (5 μL of 5 μM stock in cell plating medium) was added to each well to a final concentration of 1 μM, and cells were incubated for 70 minutes at 37° C. Plates were removed from the incubator, and 12.5 μL of […] ® detection solution (DiscoveRx catalog #93-0001) was added to each well. Plates were incubated in the dark at room temperature for one hour. Luminescence was determined at room temperature (23-25° C.) on a PolarStar Optima plate reader (BMG). Response was analyzed relative to vehicle (DMSO) and alprenolol (1 μM) as positive and negative controls, respectively. Screening data analysis and IC50 determination. Negative control signal was subtracted from all data and responses were normalized relative to full response (positive control minus negative control). Relative assay bias was calculated from the ratio of normalized cAMP and arrestin recruitment responses. Wells from orthogonally-compressed libraries displaying Gs-bias (negative allosteric modulators of arrestin recruitment and positive allosteric modulators of cAMP production, excluding inverse agonists) were deconvoluted to identify compounds for follow-up analysis.
Assay [2] concerns the target T1, β2AR. The assay can be described thus: GLOSENSOR cAMP production assay (bias = GloSensor IC50:PathHunter IC50). The conditions noted are these: GloSensor IC50:PathHunter IC50 ratio. On the technique in general: Cyclic AMP is a second messenger, typically raised through Gs and lowered through Gi signalling.
Experimental: as §1
Assay [3] deals with HASM cells. The assay can be described thus: Human airway smooth muscle cell scratch (migration) assay. To be noted: 24 hours post scratch, 20 ng/mL PDGF, relative to PDGF alone. As to the method:
FIGS. 4A-4F: DFPQ inhibits internalization of the β2AR and protects from agonist induced desensitization in cell and tissue models. FIG. 4A: Effect of DFPQ on agonist-promoted internalization of the β2AR. HEK 293 cells stably expressing FLAG-β2AR were pre-incubated with 0.1% DMSO or 10 μM DFPQ for 30 min and then stimulated with the indicated concentrations of ISO for up to 60 min. Cells were fixed and receptor surface expression was measured by ELISA. […] Cells were lysed and cAMP production was measured by ELISA. […] FIG. 4C: Mouse airway tissue were contracted with 1 μM methacholine for 5 min and then incubated overnight with 1 μM ISO±1 μM DFPQ. Airway slices were washed, re-contracted with methacholine, and incubated with ISO for 1 hour (n=4 bronchioles). Airway contractility was measured by luminal area of bronchioles by microscopy at various times. FIG. 4D: Bar graphs represent normalized ISO-promoted relaxation from methacholine contraction on day 2 of treatment at the 25 min timepoint from 4 tracheal rings. *, p<0.05 FIG. 4E: HASM cells were scratched and incubated overnight in PDGF containing serum free media. Cells were imaged to evaluate migration into the scratched area. FIG. 4F: Densitometric analysis of migration into scratched area (n=3 experiments). ***, p<0.001; **, p<0.01
Cell culture GLOSENSOR™ cells (Promega) were maintained in Dulbecco's modified Eagle's medium (DMEM) containing 10% fetal bovine serum (FBS) and 200 μg/ml Hygromycin B. […]® ADRB2 cells (DiscoveRx) were maintained with the AssayComplete™ Cell Culture kit (DiscoveRx catalog #92-3107G). […] Cells were read every three minutes for 18 minutes on a PolarStar Optima plate reader (BMG) to establish peak signal. ISO was added to each well to a final concentration of 1 μM, and luminescence was determined in kinetic mode at room temperature (23-25° C.). Response was analyzed relative to forskolin (7 μM) and alprenolol (1 μM) as positive and negative controls, respectively. […] Luminescence was determined at room temperature (23-25° C.) on a PolarStar Optima plate reader (BMG). […]

[4] abbreviates: Table 2, scaffold drawing 253, R1/R2 substituents.
The mark [5] stands for this setting: Table 3, scaffold drawing 254, R1/R3 substituents.

T1 sequence (P07550 whole entry): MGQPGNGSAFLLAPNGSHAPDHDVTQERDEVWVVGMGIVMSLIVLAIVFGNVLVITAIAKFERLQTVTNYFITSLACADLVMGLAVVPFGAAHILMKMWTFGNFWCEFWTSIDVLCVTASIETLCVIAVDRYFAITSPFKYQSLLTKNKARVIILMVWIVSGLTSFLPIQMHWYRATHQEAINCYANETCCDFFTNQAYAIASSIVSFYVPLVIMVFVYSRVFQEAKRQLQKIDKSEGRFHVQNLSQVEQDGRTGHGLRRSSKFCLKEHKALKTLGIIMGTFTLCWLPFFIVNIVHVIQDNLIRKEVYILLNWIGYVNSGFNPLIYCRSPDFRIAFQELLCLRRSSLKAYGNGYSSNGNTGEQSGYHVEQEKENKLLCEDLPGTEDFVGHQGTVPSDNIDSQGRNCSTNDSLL

As a reminder, the IC50 is the point on the concentration scale where inhibition reaches its midpoint. The low end stands for greater potency in that assay, the high end for weaker potency in that assay. Molecule `Cc1ccc(CNc2nc(NC3CCCCC3)c3ccccc3n2)cc1` [p-methylbenzyl / N/A] showed an IC50 in assay [1] (setting [4]) of 8 ± 2 µM. The Arrestin fold bias in assay [2] (Table 2) was roughly 4.

The molecule `c1ccc2c(NC3CCCCC3)nc(NC3CCCCC3)nc2c1` [cyclohexyl / N/A] yielded an IC50 in assay [1] (setting [4]) of 4 ± 1 µM. Moreover, the Arrestin fold bias in assay [2] (Table 2) is recorded as greater than 10. In assay [1] (setting [4]), `Fc1ccc(Nc2nc(NC3CCCCC3)c3cc(Br)ccc3n2)cc1F` [m,p-difluorophenyl / 6-bromo] showed an IC50 of 0.03 ± 0.02 µM. The Arrestin fold bias in assay [2] (Table 2) is greater than 900.

For the molecule `Clc1cc(Cl)cc(Nc2nc(NC3CCCC3)c3ccccc3n2)c1` [m-dichlorophenyl / cyclopentyl], in assay [1] (setting [5]), the 50% inhibitory concentration (IC50) came to 9 ± 3 µM. The Arrestin fold bias in assay [2] (Table 3) is listed as roughly 2. Consider `c1ccc(Nc2nc(NC3CCCCC3)c3ccccc3n2)cc1` [phenyl / N/A], for which the IC50 in assay [1] (setting [4]) is 3 ± 0.7 µM. In addition, in assay [2] (Table 2), the Arrestin fold bias is recorded as greater than 100. In the case of `Clc1cc(Cl)cc(Nc2nc(NCc3ccccc3)c3ccccc3n2)c1` [m-dichlorophenyl / benzyl], in assay [1] (setting [5]), half-maximal inhibition (IC50) required 30 ± 4 µM. Further, in assay [2] (Table 3), the Arrestin fold bias entry is “No”. `Clc1ccc(Nc2nc(NC3CCCCC3)c3ccccc3n2)cc1` [p-chlorophenyl / N/A] displayed a concentration for half-maximal inhibition (IC50) in assay [1] (setting [4]) of 0.8 ± 0.2 µM. In addition, the Arrestin fold bias in assay [2] (Table 2) is reported as greater than 100. `OCc1cc(C(O)CNCCCCCCOCCCCc2ccccc2)ccc1O` (stereo not shown) [salmeterol]: the “HASM cell migration into scratched area” value in assay [3] is on record as “reduced migration”.

Turning to `Fc1ccc(Nc2nc(NC3CCCCC3)c3cc(C(F)(F)F)ccc3n2)cc1F` [m,p-difluorophenyl / 6-trifluoromethyl], the Arrestin fold bias in assay [2] (Table 2) was greater than 1000. As for `Fc1ccc(Nc2nc(NC3CCCCC3)c3cc(Cl)ccc3n2)cc1F` [m,p-difluorophenyl / 6-chloro], in assay [1] (setting [4]), half-maximal inhibition (IC50) was put at 0.12 ± 0.05 µM. The Arrestin fold bias in assay [2] (Table 2) is greater than 400.

`Clc1cccc(Nc2nc(NC3CCCCC3)c3ccccc3n2)c1` [m-chlorophenyl / N/A] returned an IC50 in assay [1] (setting [4]) of 6 ± 0.8 µM. Also, the Arrestin fold bias in assay [2] (Table 2) is listed as greater than 10. Consider `Clc1ccc(Nc2nc(NC3CCCCC3)c3ccccc3n2)cc1Cl` [m,p-dichlorophenyl / N/A], for which the IC50 in assay [1] (setting [4]) stood at 3 ± 0.7 µM. In addition, the Arrestin fold bias in assay [2] (Table 2) is recorded as greater than 100. The corresponding values for `COc1ccc(Nc2nc(NC3CCCCC3)c3ccccc3n2)cc1OC` [m,p-dimethoxyphenyl / N/A] are 14 ± 3 µM and greater than 7. Consider `CC1CCCC(Nc2nc(Nc3cc(Cl)cc(Cl)c3)nc3ccccc23)C1` (stereo not shown) [m-dichlorophenyl / 3-methylcyclohexyl], for which, in assay [1] (setting [5]), the IC50 is 8 ± 5 µM. Further, the Arrestin fold bias in assay [2] (Table 3) is greater than 10.

Turning to `Fc1cc(F)cc(Nc2nc(NC3CCCCC3)c3ccccc3n2)c1` [m-difluorophenyl / N/A], in assay [1] (setting [4]), it took 0.2 ± 0.05 µM to reach half-maximal inhibition (IC50). In addition, in assay [2] (Table 2), the Arrestin fold bias is recorded as greater than 200. Regarding `CC(C)NCC(O)c1ccc(O)c(O)c1` (stereo not shown) [ISO, isoproterenol], in assay [3], the “HASM cell migration into scratched area” value is given as “reduced migration”. With `FC(F)(F)c1cccc(Nc2nc(NC3CCCCC3)c3ccccc3n2)c1` [m-trifluoromethylphenyl / N/A], in assay [1] (setting [4]), the half-inhibitory concentration (IC50) was 3 ± 1 µM. For the same molecule, the Arrestin fold bias in assay [2] (Table 2) is listed as roughly 3. The corresponding values for `Clc1cccc(CNc2nc(NC3CCCCC3)c3ccccc3n2)c1` [m-chlorobenzyl / N/A] are 21 ± 2 µM and “No”. `Fc1ccc(Nc2nc(NC3CCCCC3)c3ccccc3n2)cc1` [p-fluorophenyl / N/A] had an IC50 in assay [1] (setting [4]) of 0.23 ± 0.07 µM. Further, the Arrestin fold bias in assay [2] (Table 2) is greater than 200.

For `Cc1ccc2nc(Nc3ccc(F)c(F)c3)nc(NC3CCCCC3)c2c1` [m,p-difluorophenyl / 6-methyl], it took 0.36 ± 0.18 µM to reach half-maximal inhibition in assay [1] (setting [4]) (IC50). For the same molecule, the Arrestin fold bias in assay [2] (Table 2) was greater than 45.

(Values after patent publication US20240166626A1, “Compounds and Methods for Preventing, Treating, or Ameliorating Airway Disease” (THOMAS JEFFERSON UNIVERSITY, priority 2021, published 2024).)
